Experimental data published in US9840478B2 (MERCK SHARP & DOHME CORP., priority 2013, dated 2017).

What follows are molecules tested on HIV-1 (H9IIIB strain) (assay: Cell-based HIV infection assay using a reporter (Cell-Based), MT4-GFP cells). Details: Human immunodeficiency virus 1, MT4-GFP cells infected with HIV-1 H9IIIB; 50% normal human serum; mean of at least two independent experiments; read-out: Cell-based IP.
Summary of the method: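 IC50 from 4-parameter dose-response of % viral growth inhibition, using the 48 h/24 h infected-cell ratio scaled between DMSO and a protease/integrase/NNRTI triple-drug control. Assay used MT4 cells with HIV-LTR-GFP reporter, pre-infected 24 h with HIV-1 H9IIIB, in 50% normal human serum.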
With C[C@@H]1CNC[C@H](CCc2c(F)cccc2NC(=O)[C@@H](N)C2(c3ccc(F)c(F)c3)CCOCC2)N1S(=O)(=O)c1ccccc1 [Example 291, (2S)-2-amino-2-[4-(3,4-difluorophenyl)tetrahydro-2H-pyran-4-yl]-N-(3-fluoro-2-{2-[(2S,6R)-6-methyl-1-(phenylsulfonyl)piperazin-2-yl]ethyl}phenyl)ethanamide] the IC50 was 100 nM. For C[C@H]1CNC[C@H](CCc2c(F)cncc2NC(=O)[C@@H](N)[C@@H](c2ccc(Cl)cc2)c2cccc(F)c2)N1S(=O)(=O)c1ccccc1 [Example 113, (βS)-β-(4-chlorophenyl)-3-fluoro-N-(5-fluoro-4-{2-[(2S,6S)-6-methyl-1-(phenylsulfonyl)piperazin-2-yl]ethyl}pyridin-3-yl)-L-phenylalaninamide], the IC50 was 25 nM. Molecule O=C(C[C@@H](c1ccc(F)cc1)c1cc(F)cc(F)c1)Nc1cncc(F)c1CC[C@H]1CNCCN1C(=O)c1ccc(OC(F)(F)F)cc1 [Example 344, (3S)-3-(3,5-difluorophenyl)-3-(4-fluorophenyl)-N-(5-fluoro-4-{2-[(2S)-1-{[4-(trifluoromethoxy)phenyl]carbonyl}piperazin-2-yl]ethyl}pyridin-3-yl)propanamide] has an IC50 of 1800 nM. COC(=O)N[C@H](C(=O)Nc1cccc(F)c1CC[C@H]1CNC[C@H](C)N1S(C)(=O)=O)[C@@H](c1ccc(Cl)cc1)c1cc(F)cc(F)c1 [Example 200, (βS)-4-chloro-β-(3,5-difluorophenyl)-N-(3-fluoro-2-{2-[(2S,6S)-6-methyl-1-(methylsulfonyl)piperazin-2-yl]ethyl}phenyl)-Nα-(methoxycarbonyl)-L-phenylalaninamide] gave an IC50 of 16 nM. In the case of N[C@H](C(=O)Nc1cncc(F)c1CC[C@H]1CNCCN1S(=O)(=O)C1CC1)[C@@H](c1ccc(F)cc1)c1cc(F)cc(F)c1 [Example 33, (βS)-N-(4-{2-[(2S)-1-(cyclopropylsulfonyl)piperazin-2-yl]ethyl}-5-fluoropyridin-3-yl)-3,5-difluoro-β-(4-fluorophenyl)-L-phenylalaninamide], the IC50 is reported as 25 nM. Molecule COC(=O)N[C@H](C(=O)Nc1cncc(F)c1CC[C@H]1CNC[C@H](C)N1S(=O)(=O)c1ccc(OC)cc1)[C@@H](c1ccc(Cl)cc1)C1CCOCC1 [Example 136, (βR)-4-chloro-N-[5-fluoro-4-(2-{(2S,6S)-1-[(4-methoxyphenyl)sulfonyl]-6-methylpiperazin-2-yl}ethyl)pyridin-3-yl]-Nα-(methoxycarbonyl)-β-(tetrahydro-2H-pyran-4-yl)-L-phenylalaninamide] has an IC50 of 10 nM. In the case of COc1ccc([C@H](c2ccc(Cl)cc2)[C@H](N)C(=O)Nc2cccc(F)c2CC[C@H]2CNCC(C)N2S(=O)(=O)C2CC2)cn1 (stereo in doubt) [Example 152, (βS)-4-chloro-N-(2-{2-[(2S,6S)-1-(cyclopropylsulfonyl)-6-methylpiperazin-2-yl]ethyl}-3-fluorophenyl)-β-(6-methoxypyridin-3-yl)-L-phenylalaninamide], the IC50 is reported as 39 nM. COc1ccccc1S(=O)(=O)N1[C@@H](CCc2c(F)cccc2NC(=O)[C@@H](N)[C@@H](c2ccc(F)cc2)c2cc(F)cc(F)c2)CNC[C@H]1C [Example 239, (βS)-β-(3,5-difluorophenyl)-4-fluoro-N-[3-fluoro-2-(2-{(2S,6R)-1-[(2-methoxyphenyl)sulfonyl]-6-methylpiperazin-2-yl}ethyl)phenyl]-L-phenylalaninamide] showed an IC50 of 130 nM. For N[C@H](C(=O)Nc1cccc(F)c1CC[C@@H]1CNCCN1S(=O)(=O)c1ccccc1)[C@@H](c1ccc(Cl)c(F)c1)C1CCOCC1 [Example 38, (βR)-4-chloro-3-fluoro-N-(3-fluoro-2-{2-[(2R)-1-(phenylsulfonyl)piperazin-2-yl]ethyl}phenyl)-β-(tetrahydro-2H-pyran-4-yl)-L-phenylalaninamide], the IC50 was 890 nM. Work on C[C@@H]1CNC[C@H](CCc2c(F)cncc2NC(=O)[C@@H](N)[C@@H](c2ccc(Cl)cc2)C2CCOCC2)N1S(=O)(=O)c1ccc(Cl)cc1 [Example 298, (βR)-4-chloro-N-[4-(2-{(2S,6R)-1-[(4-chlorophenyl)sulfonyl]-6-methylpiperazin-2-yl}ethyl)-5-fluoropyridin-3-yl]-β-(tetrahydro-2H-pyran-4-yl)-L-phenylalaninamide] yielded an IC50 of 36 nM. In the case of C[C@H]1CNC[C@H](CCc2c(F)cccc2NC(=O)[C@@H](N)[C@H](c2cccc(F)c2)c2cccc(Cl)c2)N1S(C)(=O)=O [Example 172, (βR)-3-chloro-N-(3-fluoro-2-{2-[(2S,6S)-6-methyl-1-(methylsulfonyl)piperazin-2-yl]ethyl}phenyl)-β-(3-fluorophenyl)-L-phenylalaninamide], the IC50 is reported as 180 nM. Molecule O=C(Nc1cccc(F)c1CC[C@H]1CNCCN1S(=O)(=O)c1ccccc1)[C@@H](O)C(c1ccccc1)c1ccccc1 (single isomer, unassigned) [Example 364] has an IC50 of 34 nM. With COC(=O)N[C@H](C(=O)Nc1cccc(F)c1CC[C@H]1CNC[C@H](C)N1S(=O)(=O)c1ccccc1)[C@H](c1cncc(F)c1)c1cccc(Cl)c1 [Example 253, (βS)-3-chloro-N-(3-fluoro-2-{2-[(2S,6S)-6-methyl-1-(phenylsulfonyl)piperazin-2-yl]ethyl}phenyl)-β-(5-fluoropyridin-3-yl)-Nα-(methoxycarbonyl)-L-phenylalaninamide] the IC50 was 24 nM. Molecule COC(=O)N[C@H](C(=O)Nc1cccc(F)c1CC[C@H]1CNC[C@@H](C)N1S(=O)(=O)C1CC1)[C@@H](c1cccc(Cl)c1)C(C)C [Example 217, (βR)-3-chloro-N-(2-{2-[(2S,6R)-1-(cyclopropylsulfonyl)-6-methylpiperazin-2-yl]ethyl}-3-fluorophenyl)-Nα-(methoxycarbonyl)-β-(1-methylethyl)-L-phenylalaninamide] has an IC50 of 1800 nM. COC(=O)N[C@H](C(=O)Nc1cccc(F)c1CC[C@H]1CNCCN1S(=O)(=O)c1ccccc1)[C@@H](c1ccc(Cl)cc1)C1CCOC(C)(C)C1 (stereo partly drawn) [Example 76, (βR)-4-chloro-β-(2,2-dimethyltetrahydro-2H-pyran-4-yl)-N-(3-fluoro-2-{2-[(2S)-1-(phenylsulfonyl)piperazin-2-yl]ethyl}phenyl)-Nα-(methoxycarbonyl)-L-phenylalaninamide] was tested, and the IC50 was 9.4 nM. Molecule COC(=O)N[C@H](C(=O)Nc1cncc(F)c1CC[C@H]1CNCCN1S(=O)(=O)N1CCCC1)[C@@H](c1ccc(F)cc1)c1cc(F)cc(F)c1 [Example 84, (βS)-3,5-difluoro-β-(4-fluorophenyl)-N-(5-fluoro-4-{2-[(2S)-1-(pyrroldin-1-ylsulfonyl)piperazin-2-yl]ethyl}pyridin-3-yl)-Nα-(methoxycarbonyl)-L-phenylalaninamide] has an IC50 of 8.4 nM. COC(=O)N[C@H](C(=O)Nc1cccc(F)c1CC[C@H]1CNCCN1S(=O)(=O)c1ccccc1)[C@@H](c1ccc(Cl)cc1)c1cccc(F)c1 [Example 52, (βS)-4-chloro-β-(3-fluorophenyl)-N-(3-fluoro-2-{2-[(2S)-1-(phenylsulfonyl)piperazin-2-yl]ethyl}phenyl)-Nα-(methoxycarbonyl)-L-phenylalaninamide] showed an IC50 of 9.2 nM. Work on COc1ccc([C@H](c2ccc(Cl)cc2)[C@H](N)C(=O)Nc2cccc(F)c2CC[C@H]2CNC[C@@H](C)N2S(=O)(=O)c2ccccc2)cn1 [Example 14, (βS)-4-chloro-N-(3-fluoro-2-{2-[(2S,6R)-6-methyl-1-(phenylsulfonyl)piperazin-2-yl]ethyl}phenyl)-β-(6-methoxypyridin-3-yl)-L-phenylalaninamide] yielded an IC50 of 18 nM. Work on N[C@H](C(=O)Nc1cccc(F)c1CC[C@H]1CNCCN1S(=O)(=O)c1ccccc1)[C@@H](c1ccc(Cl)c(F)c1)C1CCOCC1 [Example 37, (βR)-4-chloro-3-fluoro-N-(3-fluoro-2-{2-[(2S)-1-(phenylsulfonyl)piperazin-2-yl]ethyl}phenyl)-β-(tetrahydro-2H-pyran-4-yl)-L-phenylalaninamide] yielded an IC50 of 46 nM. O=C(C[C@@H](c1ccc(F)cc1)c1cc(F)cc(F)c1)Nc1cncc(F)c1CC[C@H]1CNCCN1S(=O)(=O)N1CCC(F)(F)CC1 [Example 330, (3S)-3-(3,5-difluorophenyl)-N-[4-(2-{(2S)-1-[(4,4-difluoropiperidin-1-yl)sulfonyl]piperazin-2-yl}ethyl)-5-fluoropyridin-3-yl]-3-(4-fluorophenyl)propanamide] showed an IC50 of 43 nM. For COc1ccc([C@H](c2ccc(Cl)cc2)[C@H](N)C(=O)Nc2cccc(F)c2CC[C@H]2CNC[C@H](C)N2S(C)(=O)=O)cn1 [Example 164, (βS)-4-chloro-N-(3-fluoro-2-{2-[(2S,6S)-6-methyl-1-(methylsulfonyl)piperazin-2-yl]ethyl}phenyl)-β-(6-methoxypyridin-3-yl)-L-phenylalaninamide], the IC50 was 37 nM. In the case of COC(=O)N[C@H](C(=O)Nc1cccc(F)c1CC[C@H]1CNC[C@@H](C)N1S(=O)(=O)c1ccccc1)[C@@H](c1ccc(Cl)cc1)C1CCOCC1 [Example 117, (βR)-4-chloro-N-(3-fluoro-2-{2-[(2S,6R)-6-methyl-1-(phenylsulfonyl)piperazin-2-yl]ethyl}phenyl)-Nα-(methoxycarbonyl)-β-(tetrahydro-2H-pyran-4-yl)-L-phenylalaninamide], the IC50 is reported as 9.3 nM. With C[C@H]1CNC[C@H](CCc2c(F)cccc2NC(=O)[C@@H](N)[C@@H](c2ccc(Cl)cc2)c2cccc(F)c2)N1S(=O)(=O)c1ccccc1 [Example 101, (βS)-4-chloro-N-(3-fluoro-2-{2-[(2S,6S)-6-methyl-1-(phenylsulfonyl)piperazin-2-yl]ethyl}phenyl)-β-(3-fluorophenyl)-L-phenylalaninamide] the IC50 was 24 nM. COC(=O)N[C@H](C(=O)Nc1cncc(F)c1CC[C@H]1CNC[C@@H](C)N1S(=O)(=O)c1ccccc1)[C@@H](c1ccc(Cl)cc1)C1CCOCC1 [Example 279, (βR)-4-chloro-N-(5-fluoro-4-{2-[(2S,6R)-6-methyl-1-(phenylsulfonyl)piperazin-2-yl]ethyl}pyridin-3-yl)-Nα-(methoxycarbonyl)-β-(tetrahydro-2H-pyran-4-yl)-L-phenylalaninamide] gave an IC50 of 16 nM.
